The supplement of paper PMC10307832

Experiments:
Assay in all cases: relative viability (nuclei count vs DMSO), 5 days (fraction); higher = more cells survive
Crenolanib + Linsitinib = compound: CC1(COc2ccc3c(c2)ncn3-c2ccc3cccc(N4CCC(N)CC4)c3n2)COC1 [Crenolanib] + C[C@]1(O)C[C@@H](c2nc(-c3ccc4ccc(-c5ccccc5)nc4c3)c3c(N)nccn32)C1 [Linsitinib] (partner 1 µM)
In short: (§1)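 Values are medians from duplicate plates. Each reflects relative viability, defined as the nuclei count of treated wells over that of vehicle wells. Lung cancer cell lines in 1536-well plates were pin-tool dosed one day after seeding with one drug alone or with a fixed anchor-drug dose plus five library-drug doses (not always all listed) in √10 steps, then fixed, stained and imaged at 4× after 5 days.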

Crenolanib + OSI-027 = compound: CC1(COc2ccc3c(c2)ncn3-c2ccc3cccc(N4CCC(N)CC4)c3n2)COC1 [Crenolanib] + COc1cccc2cc(-c3nc([C@H]4CC[C@H](C(=O)O)CC4)n4ncnc(N)c34)[nH]c12 [OSI-027] (partner 0.5 µM)
In short: as §1

Crenolanib + Phenformin = compound: CC1(COc2ccc3c(c2)ncn3-c2ccc3cccc(N4CCC(N)CC4)c3n2)COC1 [Crenolanib] + N=C(N)NC(=N)NCCc1ccccc1 [Phenformin] (partner 250 µM)
In short: as §1

Tivantinib + Luminespib = compound: O=C1NC(=O)[C@@H](c2cn3c4c(cccc24)CCC3)[C@@H]1c1c[nH]c2ccccc12 [Tivantinib] + CCNC(=O)c1noc(-c2cc(C(C)C)c(O)cc2O)c1-c1ccc(CN2CCOCC2)cc1 [Luminespib] (partner 0.01 µM)
In short: as §1

| Cell Line | relative viability (Crenolanib + Linsitinib; first compound 0.01 µM) | relative viability (Crenolanib + Linsitinib; first compound 0.03162 µM) | relative viability (Crenolanib + Linsitinib; first compound 0.1 µM) | relative viability (Crenolanib + Linsitinib; first compound 0.3162 µM) | relative viability (Crenolanib + Linsitinib; first compound 1 µM) | relative viability (Crenolanib + OSI-027; first compound 0.01 µM) | relative viability (Crenolanib + OSI-027; first compound 0.03162 µM) | relative viability (Crenolanib + OSI-027; first compound 0.3162 µM) | relative viability (Crenolanib + OSI-027; first compound 1 µM) | relative viability (Crenolanib + Phenformin; first compound 0.01 µM) | relative viability (Crenolanib + Phenformin; first compound 0.03162 µM) | relative viability (Crenolanib + Phenformin; first compound 0.3162 µM) | relative viability (Crenolanib + Phenformin; first compound 1 µM) | relative viability (Tivantinib + Luminespib; first compound 0.01 µM) | relative viability (Tivantinib + Luminespib; first compound 0.03162 µM) | relative viability (Tivantinib + Luminespib; first compound 0.1 µM) | relative viability (Tivantinib + Luminespib; first compound 0.3162 µM) | relative viability (Crenolanib + OSI-027; first compound 0.1 µM) | relative viability (Crenolanib + Phenformin; first compound 0.1 µM) |
| --- | --- | --- | --- | --- | --- | --- | --- | --- | --- | --- | --- | --- | --- | --- | --- | --- | --- | --- | --- |
| HCC-78 | 0.654 | 0.512 | 0.496 | 0.518 | 0.506 | 0.433 | 0.32 | 0.345 | 0.338 | 0.783 | 0.604 | 0.791 | 0.555 |  |  |  |  |  |  |
| HOP-62 | 0.94 | 0.764 | 0.906 | 1.04 | 1.01 | 0.868 | 0.833 | 1.03 | 0.722 | 0.616 | 0.711 | 0.815 | 0.7 | 0.889 | 0.892 | 0.917 | 0.89 | 0.872 | 0.722 |
| NCI-H1623 |  |  |  |  |  | 0.434 | 0.405 | 0.437 | 0.387 | 0.592 | 0.595 | 0.585 | 0.553 | 0.504 | 0.553 | 0.545 |  | 0.418 | 0.543 |
| NCI-H2405 | 1.15 | 0.923 | 0.661 | 0.794 | 0.859 | 0.672 | 0.64 | 0.671 | 0.655 | 0.359 | 0.394 | 0.284 | 0.362 | 0.77 | 0.908 | 0.651 | 0.586 |  |  |
| PC-3 [JPC-3] | 0.965 | 0.956 | 0.899 | 0.988 | 0.887 | 0.804 | 0.725 | 0.792 | 0.719 | 0.487 | 0.494 | 0.474 | 0.458 | 0.794 | 0.777 | 0.678 | 0.575 | 0.803 | 0.46 |
| NCI-H1666 | 0.871 | 0.909 | 0.765 | 0.881 | 0.839 | 0.85 | 0.933 | 0.906 | 0.85 | 0.56 | 0.57 | 0.557 | 0.541 | 0.963 | 1.05 | 0.944 | 0.939 | 0.834 | 0.565 |
| HCC-15 | 0.832 | 0.919 | 0.889 | 0.926 | 0.861 | 0.742 | 0.695 | 0.616 | 0.393 | 0.51 | 0.506 | 0.469 | 0.327 | 0.246 | 0.285 | 0.456 | 0.289 | 0.676 | 0.447 |
| NCI-H1651 | 1.06 | 0.988 | 0.892 | 1.02 | 0.878 | 0.77 | 0.668 | 0.674 | 0.702 | 0.331 | 0.36 | 0.336 | 0.308 | 0.768 | 1.02 | 0.764 | 0.77 | 0.715 | 0.35 |
| NCI-H1395 | 1.6 | 1.11 | 1 | 0.898 | 1.21 | 0.749 | 0.626 | 0.605 | 0.6 | 0.448 | 0.455 | 0.469 | 0.436 | 0.82 | 0.662 | 0.557 | 0.403 | 0.666 | 0.497 |
